Measurements: PubChem BioAssay (NCI)
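At the GI50, growth is halved. TGI denotes the concentration required for complete inhibition of growth.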

Key:
Assay in all cases: inhibition of tumour cell growth, NCI panel, 384-well format
[1] = system: HCT-15 colon
[2] = system: HOP-62 NSCLC
[3] = system: TK-10 renal
[4] = system: IGROV1 ovarian
[5] = system: MALME-3M melanoma
[6] = system: MDA-MB-435 melanoma
[7] = system: HL-60(TB) leukemia
[8] = system: OVCAR-4 ovarian
[9] = system: CAKI-1 renal
[10] = system: SF-295 CNS
[11] = system: MOLT-4 leukemia
[12] = system: T-47D breast
[13] = system: OVCAR-3 ovarian
[14] = system: KM12 colon
[15] = system: HT29 colon
[16] = system: MDA-MB-231 breast
[17] = system: NCI-H322M lung
[18] = system: NCI-H226 lung
[19] = system: MDA-MB-468 breast
[20] = system: CCRF-CEM leukemia
[21] = system: RPMI-8226 leukemia
[22] = system: SNB-19 CNS
[23] = system: ACHN renal
[24] = system: A498 renal
[25] = system: RXF 393 renal
[26] = system: SK-OV-3 ovarian
[27] = system: MCF7 breast
[28] = system: SW-620 colon
[29] = system: SF-539 CNS
[30] = system: SR leukemia
[31] = system: NCI-H23 lung
[32] = system: SK-MEL-5 melanoma
[33] = system: UO-31 renal
[34] = system: SK-MEL-2 melanoma
[35] = system: U251 glioblastoma
[36] = system: 786-0 renal
[37] = system: HCT-116 colon
[38] = system: UACC-257 melanoma
[39] = system: OVCAR-8 ovarian
[40] = system: DU-145 prostate
[41] = system: NCI-H522 lung
[42] = system: SF-268 CNS
[43] = system: NCI/ADR-RES ovarian
[44] = system: SK-MEL-28 melanoma
[45] = system: NCI-H460 NSCLC
[46] = system: HCC-2998 colon
[47] = system: SN12C renal
[48] = system: BT-549 breast
[49] = system: M14 melanoma
[50] = system: A549 NSCLC
[51] = system: COLO 205 colon
[52] = system: UACC-62 melanoma
[53] = system: LOX IMVI melanoma
[54] = system: OVCAR-5 ovarian
[55] = system: K-562 leukemia
[56] = system: HOP-92 NSCLC
[57] = system: PC-3 prostate

## O=P1(S)OC[C@H]2O[C@@H]3[C@H](F)[C@@H]2OP(O)(=S)OC[C@H]2O[C@H]([C@H](F)[C@@H]2O1)n1cnc2c(ncnc21)NC/C=C/CNc1ncnc2c1ncn23 (some centres undefined)
[1]
  GI50: > 100 µM
  TGI: > 100 µM
[2]
  GI50: > 100 µM
  TGI: > 100 µM
[3]
  GI50: > 100 µM
  TGI: > 100 µM
[4]
  GI50: > 100 µM
  TGI: > 100 µM
[5]
  GI50: > 100 µM
  TGI: > 100 µM
[6]
  GI50: 2.97 µM
  TGI: 46 µM
[7]
  GI50: 0.189 µM
  TGI: 0.4 µM
[8]
  GI50: 11.3 µM
  TGI: > 100 µM
[9]
  GI50: > 100 µM
  TGI: > 100 µM
[10]
  GI50: > 100 µM
  TGI: > 100 µM
[11]
  GI50: 5.67 µM
  TGI: 20.6 µM
[12]
  GI50: > 100 µM
  TGI: > 100 µM
[13]
  GI50: 4.99 µM
  TGI: 38.8 µM
[14]
  GI50: 51.2 µM
  TGI: > 100 µM
[15]
  GI50: 19.2 µM
  TGI: > 100 µM
[16]
  GI50: > 100 µM
  TGI: > 100 µM
[17]
  GI50: > 100 µM
  TGI: > 100 µM
[18]
  GI50: 0.0932 µM
  TGI: 0.361 µM
[19]
  GI50: 2.24 µM
  TGI: 7.62 µM
[20]
  GI50: 39.2 µM
  TGI: > 100 µM
[21]
  GI50: 22.1 µM
  TGI: > 100 µM
[22]
  GI50: > 100 µM
  TGI: > 100 µM
[23]
  GI50: > 100 µM
  TGI: > 100 µM
[24]
  GI50: > 100 µM
  TGI: > 100 µM
[25]
  GI50: 0.0445 µM
  TGI: 19.7 µM
[26]
  GI50: 24.3 µM
  TGI: > 100 µM
[27]
  GI50: > 100 µM
  TGI: > 100 µM
[28]
  GI50: > 100 µM
  TGI: > 100 µM
[29]
  GI50: 7.46 µM
  TGI: > 100 µM
[30]
  GI50: 0.0295 µM
  TGI: 0.101 µM
[31]
  GI50: > 100 µM
  TGI: > 100 µM
[32]
  GI50: > 100 µM
  TGI: > 100 µM
[33]
  GI50: > 100 µM
  TGI: > 100 µM
[34]
  GI50: 2.82 µM
  TGI: 52 µM
[35]
  GI50: > 100 µM
  TGI: > 100 µM
[36]
  GI50: > 100 µM
  TGI: > 100 µM
[37]
  GI50: > 100 µM
  TGI: > 100 µM
[38]
  GI50: 0.151 µM
  TGI: 19.3 µM
[39]
  GI50: > 100 µM
  TGI: > 100 µM
[40]
  GI50: > 100 µM
  TGI: > 100 µM
[41]
  GI50: 7.35 µM
  TGI: 44.2 µM
[42]
  GI50: > 100 µM
  TGI: > 100 µM
[43]
  GI50: > 100 µM
  TGI: > 100 µM
[44]
  GI50: > 100 µM
  TGI: > 100 µM
[45]
  GI50: > 100 µM
  TGI: > 100 µM
[46]
  GI50: > 100 µM
  TGI: > 100 µM
[47]
  GI50: > 100 µM
  TGI: > 100 µM
[48]
  GI50: 9.28 µM
  TGI: > 100 µM
[49]
  GI50: > 100 µM
  TGI: > 100 µM
[50]
  GI50: > 100 µM
  TGI: > 100 µM
[51]
  GI50: 48.6 µM
  TGI: > 100 µM
[52]
  GI50: > 100 µM
  TGI: > 100 µM
[53]
  GI50: > 100 µM
  TGI: > 100 µM
[54]
  GI50: > 100 µM
  TGI: > 100 µM
[55]
  GI50: > 100 µM
  TGI: > 100 µM
[56]
  GI50: > 100 µM
  TGI: > 100 µM
[57]
  GI50: > 100 µM
  TGI: > 100 µM
